Test results from the NIST ThermoML archive (doi:10.1016/j.jct.2006.05.012).
Numbers after ± are expanded uncertainties.

What was measured:
[1] = 298.15 K; 101 kPa; Liquid
[2] = xn = mol fraction of the nth substance listed; conditions: 298.15 K, 101 kPa, Liquid

C=C(C)C(=O)OC [methyl methacrylate]
Conditions	mass density [kg/m3]
[1]	937.65 ± 0.12

Cc1ccccc1 [toluene]
Conditions	mass density [kg/m3]
[1]	862.11 ± 0.18

C=C(C)C(=O)OC [methyl methacrylate] + C=CC(=O)OCCCC
Conditions	mass density [kg/m3]
[2], x2 = 0	937.65 ± 0.12

Cc1ccccc1 [toluene] + C=CC(=O)OCCCC
Conditions	mass density [kg/m3]
[2], x1 = 1	862.11 ± 0.18

C=CC(=O)OCCCC [butyl 2-propenoate] + Cc1ccccc1
[2]
Conditions	mass density [kg/m3]
x2 = 0	893.955 ± 0.15
x2 = 0.0255	893.406 ± 0.15
x2 = 0.0508	892.895 ± 0.15
x2 = 0.0999	891.775 ± 0.16
x2 = 0.1509	890.523 ± 0.16
x2 = 0.2006	889.277 ± 0.16
x2 = 0.2506	887.998 ± 0.16
x2 = 0.2996	886.7 ± 0.16
x2 = 0.3597	885.033 ± 0.16
x2 = 0.4006	883.858 ± 0.16
x2 = 0.4504	882.402 ± 0.16
x2 = 0.5015	880.847 ± 0.16
x2 = 0.55	879.307 ± 0.17
x2 = 0.6006	877.659 ± 0.17
x2 = 0.6502	875.977 ± 0.17
x2 = 0.7003	874.219 ± 0.17
x2 = 0.7501	872.408 ± 0.17
x2 = 0.8	870.53 ± 0.17
x2 = 0.8499	868.551 ± 0.17
x2 = 0.9001	866.487 ± 0.17
x2 = 0.95	864.338 ± 0.18
x2 = 0.9751	863.216 ± 0.18

C=CC(=O)OCCCC [butyl 2-propenoate]
Conditions	mass density [kg/m3]
[1]	893.96 ± 0.15

C=C(C)C(=O)OC [methyl methacrylate] + Cc1ccccc1
[2]
Conditions	mass density [kg/m3]
x2 = 0	937.646 ± 0.12
x2 = 0.0249	935.719 ± 0.12
x2 = 0.0501	933.759 ± 0.13
x2 = 0.1005	929.859 ± 0.13
x2 = 0.15	926.06 ± 0.13
x2 = 0.1994	922.3 ± 0.13
x2 = 0.2497	918.45 ± 0.14
x2 = 0.3001	914.63 ± 0.14
x2 = 0.35	910.852 ± 0.14
x2 = 0.3998	907.089 ± 0.14
x2 = 0.4501	903.299 ± 0.15
x2 = 0.5	899.556 ± 0.15
x2 = 0.5501	895.803 ± 0.15
x2 = 0.5979	892.219 ± 0.16
x2 = 0.6486	888.421 ± 0.16
x2 = 0.6998	884.596 ± 0.16
x2 = 0.7499	880.84 ± 0.16
x2 = 0.794	877.532 ± 0.17
x2 = 0.8481	873.485 ± 0.17
x2 = 0.9	869.606 ± 0.17
x2 = 0.95	865.864 ± 0.17
x2 = 0.9731	864.133 ± 0.18

Cc1ccccc1 [toluene] + C=C(C)C(=O)OC
Conditions	mass density [kg/m3]
[2], x1 = 1	862.11 ± 0.18

C=CC(=O)OCCCC [butyl 2-propenoate] + C=C(C)C(=O)OC
[2]
Conditions	mass density [kg/m3]
x1 = 0.025	936.15 ± 0.12
x1 = 0.0501	934.64 ± 0.13
x1 = 0.1001	931.77 ± 0.13
x1 = 0.1502	929.01 ± 0.13
x1 = 0.2	926.33 ± 0.13
x1 = 0.25	923.76 ± 0.13
x1 = 0.2946	921.53 ± 0.13
x1 = 0.3498	918.85 ± 0.14
x1 = 0.3992	916.57 ± 0.14
x1 = 0.45	914.28 ± 0.14
x1 = 0.4999	912.12 ± 0.14
x1 = 0.5499	910.04 ± 0.14
x1 = 0.5999	908.01 ± 0.14
x1 = 0.644	906.27 ± 0.15
x1 = 0.6991	904.19 ± 0.15
x1 = 0.7499	902.33 ± 0.15
x1 = 0.8002	900.52 ± 0.15
x1 = 0.8504	898.81 ± 0.15
x1 = 0.8994	897.15 ± 0.15
x1 = 0.9499	895.53 ± 0.15
x1 = 0.9749	894.72 ± 0.15
x1 = 1	893.96 ± 0.15
